Legend:
[1] = Amine concentration in brine #2 over amine-coated core sand, titration with 1N HCl (Example 2); format: physicochemical; conditions: core sand in brine #2
Protocol: Helium was used as the carrier gas.
38 milligrams (mg) of N N-Dimethyl-1-Dodecanamine (hereafter referred to as “the amine”) was added to 10.210 gr of Pentane. This solution was added to 10.1845 gr of specific sand layers (Oa and Ob) obtained from the Schrader Bluff formation of the Milne Point Unit of the Alaskan North slope. The oil content of the sand was first removed using a mixture of methanol and toluene (50/50, volume/volume) as solvent washes. The solvent mixture was subsequently evaporated off the core sand to produce clean, dry, flowable core sand. This sand was mixed with the amine and pentane solution to produce a slurry. This slurry was thoroughly mixed and the pentane was evaporated off leaving the amine on the sand (hereafter referred to as sand/amine mixture). 100 ml of brine #2 (Table 3) was added to the sand/amine mixture to create the sand/amine/brine mixture. […] The fact that the amine was not detected underlined its strong binding to the sand particles. […] The data underlines the remarkable efficiency of an acid at ionizing and removing the amine from the sand.

[2] = Amine concentration in brine #2 over amine-coated core sand, titration with 10% nitric acid (Example 4); conditions: titration with 10 wt % nitric acid, core sand in brine #2
Protocol: Concentration of amines, in media and water, were analyzed by gas chromatography (GC). An Agilent Model 5890 (Agilent, Wilmington, Del.), GC equipped with a […] and a split/splitless injector, a DB-FFAP column (30 meter length×0.32 millimeter (mm) depth×0.25 micrometer particle size). […] The system was calibrated using a sample of N,N-Dimethyl-1-Dodecaneamine (Aldrich). Helium was used as the carrier gas. A temperature gradient of 50 degrees Celsius (° C.) to 250° C. at 30° C. increase per minute (min) was used. Retention times (in minutes, min) for various chemicals of interest included: N,N-Dimethyl-1-Dodecaneamine (8.08 min); N,N-Dimethyl-1-Tetradecaneamine (8.85 min); N,N-Dimethyl-1-Hexadecane-amine (9.90 min); N,N-Dimethyl-1-Octadecaneamine (10.26 min) and N-Methyl,N-Benzyl)-1-Tetradecaneamine (11.40 min).
The procedure outlined in Example 2 was used to produce the sand/amine mixture except that 519 mg of the amine, 10 gr of Pentane. and 60.062 gr of sand from the Oa and Ob layers were used. 29.065 gr of this sand/amine mixture was added to 100 ml of brine #2 (Table 3) to create the sand/amine/brine mixture. […] 0.1 ml of 10 weight percent (wt %) nitric acid in water was added to this solution, and the pH and the amine concentration were measured again.

[3] = Amine concentration in brine #2 over amine-coated core sand, titration with 10% acetic acid (Example 5); conditions: titration with 10 wt % acetic acid, core sand in brine #2

For CCCCCCCCCCCCN(C)C [N N-Dimethyl-1-Dodecanamine], the “pH of complete ionization and solubilization of the amine in the water” value [1] was under 6.0, the “pH of complete ionization and solubilization in the water of the amine” value [2] was under 6.7 and the “pH of complete ionization and solubilization in the water of the amine” value [3] was under 6.7.

Reference: patent US20120006538A1, “METHOD FOR PRE-TREATMENT OF SUBTERRANEAN SITES ADJACENT TO WATER INJECTION WELLS” (E. I. DU PONT DE NEMOURS AND COMPANY, priority 2010, published 2012)
